Source: a melting point compilation (Tetko et al.; mined from patent text by program, amines drawn as free bases though some values may be those of a salt)

Row | Compound | melting point [°C]
1 | CS(=O)c1ccccc1S(=O)(=O)c1ccc(NC(=O)C(C)(O)C(F)(F)F)c(Cl)c1 (stereo not drawn) | 118 to 120
2 | Cc1cc(NCCO)c2[nH]nc(Br)c2n1 | 210 to 214
3 | Oc1ccc(Cl)nc1Cl | 136 to 138
4 | O=S(=O)(CC1CCN(CCC2CCOc3ccccc32)CC1)Nc1ccccc1 (stereo not drawn) | 186
5 | CCOC(=O)c1sc(Oc2ccc(Cl)cc2Cl)nc1C | 71 to 73
6 | CCCCNC(=O)Nc1ccccc1CCc1cc(C(C)(C)C)c(O)c(C(C)(C)C)c1 | 133 to 134
7 | COC(=O)c1cccc2c1nc(-c1c(F)cccc1F)n2Cc1c(F)cccc1F | 184 to 186
8 | COc1cc(C(C)(C)CCCC(=O)OC2CC(C)(C)NC(C)(C)C2)c(O)cc1C(C)(C)CCCC(=O)OC1CC(C)(C)NC(C)(C)C1 | 165 to 168
9 | N#Cc1ccc(N2CC(=O)NC2=O)c(-c2cccs2)c1 | 189
10 | CCN1CCC2(CC1)COc1cc3c(cc12)N(C(=O)c1ccc(-c2ccc(C(=O)NNC(C)=O)cc2C)cc1)CC3 | 154 to 157
11 | CCOC(=O)c1c(C(C)(C)O)nc(CC)n1Cc1ccc(-c2ccccc2-c2nnnn2C(c2ccccc2)(c2ccccc2)c2ccccc2)cc1 | 150 to 152
12 | COc1cccc(-c2ccc(-c3ccccc3S(=O)(=O)Nc3onc(C)c3C)cc2)n1 | 132 to 134
13 | CN(C(=O)c1ccccc1)C(=O)c1nc(Cl)c(Cl)[nH]1 | 168
14 | COc1ccc(CCNC(=O)CCCCC(=O)NCCNc2ccccc2)cc1OC | 109 to 111
15 | CCCCCCCCCCCCc1ccc(S(=O)(=O)Nc2nnc(CC(=O)OCC)s2)cc1 | 108 to 109
16 | CCCCCC1CN(C(=O)c2cc(OC)c(OC)c(OC)c2)CCN1C(=O)c1cc(OC)c(OC)c(OC)c1 (stereo not drawn) | 139 to 140
17 | CN1CCC(N(C)c2ncc3ncnc(Nc4cccc([N+](=O)[O-])c4)c3n2)CC1 | 199 to 203
18 | Cc1noc2cc(OCCCNCC3CCc4ccc(O)cc4O3)ccc12 (stereo not drawn) | 169 to 170
19 | CC(C)c1ccc(C2(CC(=O)O)CNC(=O)C2)cc1 (stereo not drawn) | 175 to 178
20 | Nc1ccc(C#CC2CC2)c(F)c1 | 82 to 86
21 | CCOC(=O)c1cc(-c2nnnn2C)c(-c2ccc(F)cc2)s1 | 132 to 133
22 | Cc1cccc(Oc2cccc(Oc3ccc4c(c3)OCO4)c2C(=O)O)c1 | 169 to 172
23 | N#CC1=C(Nc2ccc(F)cc2)CCC1 | 100 to 102
24 | O=C1OCC(c2ccccc2)C1CS (stereo not drawn) | 41 to 42
25 | COCOc1ccc(Cl)cc1-c1cc(-c2cccc([N+](=O)[O-])c2)c(C#N)c(NC(=O)c2cccs2)n1 | 161 to 162

Row | Compound | melting point [°C]
26 | Nc1nc(N)c(C(=O)NC2=NCCN2)nc1Cl | 236
27 | ClCc1nc(Cl)c2ccsc2n1 | 66 to 68
28 | COc1cc2ncnc(Nc3cccc(Br)c3)c2cc1OCC1CO1 (stereo not drawn) | 230 to 245
29 | O=C(O)CCC(=O)Nc1ccc(-c2ccncc2)cc1 | 251 to 252
30 | Nc1ccc(Cl)nc1Nc1ccc2c(c1)OCO2 | 162 to 163
31 | CC(=O)NC1(c2ccccc2Cl)CCC=CC1=O (stereo not drawn) | 144 to 145
32 | CN1Cc2c(-c3noc(CN4CCCCC4)n3)ncn2-c2ccc(F)cc2C1=O | 182 to 184
33 | Oc1ccc(Nc2nc(Cl)nc(Cl)n2)cc1Cl | 180
34 | COc1ccc(OC)c2c1CC1OC1C2 (stereo not drawn) | 130 to 132
35 | CN1C(=O)N(CCC(COc2ccc(-c3ccc(C#N)cc3)cc2)N(O)C=O)C(=O)C1(C)C (stereo not drawn) | 68 to 70
36 | COC(=O)/C(C)=C/COc1cccc(O)c1 | 79 to 81
37 | CN=C(NC#N)N1CC1 | 130 to 132
38 | Cc1cc(N)c2cc(NC(=O)C=Cc3ccccc3C(F)(F)F)ccc2n1 | 272 to 273
39 | O=P(CN(O)CP(=O)(OCc1ccccc1)OCc1ccccc1)(OCc1ccccc1)OCc1ccccc1 | 71 to 73
40 | FC(F)(F)c1cc(CN2CCc3cc(OC[C@H]4CO[C@](Cn5ccnc5)(c5ccc(Cl)cc5Cl)O4)ccc3C2)ccc1Cl (racemic) | 107 to 108
41 | Cc1ccc(S(=O)(=O)OCC2CC(=O)N(Cc3ccccc3)C2c2c(Cl)cccc2Cl)cc1 (stereo not drawn) | 110 to 114
42 | N#CCCNC(=O)c1cccc(-c2ccnc3cc(Cc4cccc(C(F)(F)F)c4)nn23)c1 | 153 to 154
43 | C/C(=C(\C#N)C(N)=S)N1CC[C@@H]2CCCC[C@H]2C1 (relative stereo) | 173 to 175
44 | COc1ccccc1C1(O)C(O)CC(c2ccccc2)(c2ccccc2)C2CN(C(=O)Cc3c[nH]c4ccc(O)cc34)CC21 (mixture of isomers) | 230 to 235
45 | Cc1ccc2c(c1)C(NC(=O)CCl)CC(C)(C)O2 (stereo not drawn) | 147 to 148
46 | CC1(C)C(=O)N(CCN2CCc3c([nH]c4ccccc34)C2)c2ccccc21 | 156 to 158
47 | CC1(C)CCC2(Cc3ccc(Cl)cc3)OC2C1=O (stereo not drawn) | 69 to 70
48 | CCN=C(NC#N)NCCSCc1ncccc1Br | 123 to 124
49 | Cc1ccc(-c2cc([Si](C)(C)C)oc2-c2ccc(Cl)cc2)cc1 | 80 to 84
50 | COc1cc2c(cc1Cl)C(=O)Cc1ccc(F)cc1S2 | 195 to 197

Row | Compound | melting point [°C]
51 | CCCc1c(OCCCCCCc2ccccc2CCC(=O)O)ccc2c1OCCC2=O | 98 to 99
52 | C#Cc1ccc(=O)n(C(C)C)n1 | 103 to 104
53 | O=C(CCCCN1CCCCC1)c1ccc2c(c1)Cc1cc(C(=O)CCCCN3CCCCC3)ccc1-2 | 124 to 127
54 | CCCCCc1noc(-c2ccc(OCCC3CCN(c4ccc(C)nn4)CC3)cc2)n1 | 111
55 | CCOC(=O)c1ccc(NCCCCCCOc2ccc3ccccc3c2)cc1 | 109 to 110
56 | COc1ccc(F)cc1C1OC(=O)CC1C(=O)O (stereo not drawn) | 41 to 43
57 | CC(C)Oc1ccccc1C1(N[C@H](CO)c2ccccc2)C(=O)Nc2ccc(Cl)cc21 (stereo partly drawn) | 193
58 | CC(C)C(C(=O)CCC(NC(=O)OCc1ccccc1)C(=O)OCc1ccccc1)C(=O)OC(C)(C)C (stereo not drawn) | 69 to 71
59 | CCOC(=O)c1sc2cc(COS(C)(=O)=O)ccc2c1S(=O)c1cccc(OC)c1 (stereo not drawn) | 80 to 83
60 | CC(C)n1nc(-c2c(-c3ccccc3)nn3ccc(N4CCN(C(=O)N(C)C)CC4)cc23)ccc1=O | 160 to 161
61 | Cn1ncc2c1-c1c(Oc3ccccc3)sc(C(=O)O)c1CC2 | 259 to 261
62 | CCOCc1nc2c(N)nc3ccccc3c2n1NCCCNS(C)(=O)=O | 148 to 150
63 | c1ccc(SCCn2c(-c3ccccc3)nc3cc(CN4CCN(C(c5ccccc5)c5ccccc5)CC4)ccc32)cc1 | 118 to 125
64 | CSC(C(=O)c1cc(-c2ccccc2)on1)N1CCOCC1 (stereo not drawn) | 124 to 126
65 | O=C(O)CCNC(=O)NCCCCC1CCSS1 (stereo not drawn) | 108 to 110
66 | O=C(Nc1ccccc1Nc1ccnc2c(NC(=O)c3c(Cl)cccc3Cl)cccc12)c1cccnc1 | 151 to 154
67 | COCn1c(-c2nccs2)c(Cl)c2cccc([N+](=O)[O-])c21 | 106 to 107
68 | COCOc1ccc(C=O)c(Cl)c1OCc1ccccc1 | 66 to 67
69 | C#Cc1c(-n2ccnc2)nc(C)nc1C(F)(F)F | 121 to 122
70 | CN(C)CCC1CCc2cc(OCc3cc4ccccc4o3)ccc2C1 (single isomer, unassigned; (+)) | 75 to 77
71 | COc1cc(C=O)cc(OC)c1NC=O | 159 to 160
72 | N#CC1=C(CN2C(=O)c3ccccc3C2=O)Nc2n[nH]cc2C1c1ccccc1Cl (stereo not drawn) | > 250
73 | N#Cc1c[nH]nc1-c1ccccc1Cl | 160
74 | Cc1ccc(N2C(=O)C(O)=C(C(=O)c3ccc(C(C)C)cc3)C2c2ccc(OC(C)(C)C)cc2)nn1 (stereo not drawn) | 276 to 277
75 | COc1ccc2cc(C(C)COS(N)(=O)=O)ccc2c1 (stereo not drawn) | 112 to 115

Row | Compound | melting point [°C]
76 | CCOCCNC1CCCCC1Cc1ccc(-c2cccc(N)n2)cc1 (stereo not drawn) | 70 to 90
77 | CC(C)(C)CN(CC(O)C(Cc1ccccc1)NC(=O)C(CC(N)=O)NC(=O)c1ccc2ccccc2n1)C(=O)NC(C)(C)C (stereo not drawn) | 115 to 117
78 | Cn1nc2c(N)nc3ccccc3c2c1CCc1ccccc1 | 210 to 212
79 | Oc1ccc2nccc(Cl)c2c1 | 223
80 | COc1ccc(-c2cc(-c3sc(N)nc3-c3cccc(C)n3)ccn2)cc1 | 188 to 190
81 | CC(=O)OC1CC(n2cc(C=CBr)c(=O)[nH]c2=O)OC1CC#N (stereo not drawn) | 96
82 | CC(C)(C)Oc1ccc(O)c(C(=O)O)c1 | 282
83 | COC(=O)[C@H]1Cc2ccc(C)cc2C(=O)[C@H](c2ccccc2)S1 (relative stereo) | 136 to 137
84 | Cc1cccc2[nH]c(-c3ccccc3[N+](=O)[O-])nc12 | 167 to 168
85 | CNC(Cc1c[nH]c2c(Cl)cccc12)C(=O)O (stereo not drawn) | 208 to 211
86 | Cn1c(=O)[nH]c(=O)c2c1ncn2CCCCCCO | 219 to 220
87 | COc1ncccc1Oc1cc(-n2c(=O)cc(C(F)(F)F)n(C)c2=O)c(F)cc1Cl | 180
88 | CSc1c2c3c(n1C)C(=O)C(=O)C(Cl)=C3NCC2 | 205
89 | O=C(O)CCc1nc(-c2cc3ccccc3o2)no1 | 154 to 155
90 | CC(NC(=O)C1=C(C(=O)Nc2cc(OC3CCCC3)c(Cl)cc2F)CCCC1)c1cccc2ccccc12 (stereo not drawn) | 198 to 201
91 | CCCCCCCCCCCc1nc(N)n[nH]1 | 128 to 132
92 | COC(=O)CN1CCN(c2cccc(-c3nc4cc(OC)cc(OC)c4c(=O)[nH]3)n2)CC1 | 176 to 177
93 | CCC(CC)(CC(=O)Nc1cccc(/C=C/c2cccc(CCCCCCc3ccc(OCCC(C)C)cc3)n2)c1)C(=O)O | 136 to 137
94 | Cc1cc(C)c(NC(=O)CC23CC4CC(CC(C4)C2)C3)cc1C | 158
95 | CCN(CC)CC(=O)Nc1ccc(NC(=O)CN(CC)CC)c2c1C(=O)c1ccccc1C2=O | 85 to 86
96 | CCCOc1ccc(S(=O)(=O)N(C)C)cc1-c1ccc(C#N)c(=O)[nH]1 | 225 to 226
97 | Cc1noc(C2CN=CN(C(c3ccccc3)(c3ccccc3)c3ccccc3)C2)n1 (stereo not drawn) | 72 to 74
98 | CCN1CCN(Cc2ccc(-c3cc4c(NCc5ccc(OC)nc5)ncnc4[nH]3)cc2)CC1 | 305
